Test results published in US11178871B2, “Herbicidal pyrimidine compounds” (BASF SE, priority 2016, dated 2021).

Tests used:
Format in all cases: in vivo
Alopecurus myosuroides [1] = experiment: greenhouse test, post-emergence treatment, ALOMY; details: post-emergence
Method in brief: (§1)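 Seeds were sown per species in loamy sand with about 3.0% humus, grown (or transplanted as seedlings) to 3–15 cm, and treated with water-suspended or emulsified compound. Response was assessed over 2–4 weeks at species-dependent 10–25 °C or 20–35 °C, scored 0 (normal growth) to 100 (complete kill).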

Echinocloa crus-galli [2] = experiment: greenhouse test, post-emergence treatment, ECHCG; details: post-emergence
Method in brief: as §1

Lolium multiflorum = experiment: greenhouse test, post-emergence treatment, LOLMU; details: 500 g/ha
Source text: (§2) The culture containers used were plastic flowerpots containing loamy sand with approximately 3.0% of humus as the substrate. The seeds of the test plants were sown separately for each species.
(§3) For the post-emergence treatment, the test plants were first grown to a height of 3 to 15 cm, depending on the plant habit, and only then treated with the active ingredients which had been suspended or emulsified in water. For this purpose, the test plants were either sown directly and grown in the same containers, or they were first grown separately as seedlings and transplanted into the test containers a few days prior to treatment.
(§4) Depending on the species, the plants were kept at 10-25° C. or 20-35° C., respectively.
(§5) The test period extended over 2 to 4 weeks. During this time, the plants were tended, and their response to the individual treatments was evaluated.
(§6) Evaluation was carried out using a scale from 0 to 100. 100 means no emergence of the plants, or complete destruction of at least the aerial moieties, and 0 means no damage, or normal course of growth. A good herbicidal activity is given at values of at least 70 and a very good herbicidal activity is given at values of at least 85.
(§7) The plants used in the greenhouse experiments were of the following species: […]

Polygonum convolvulus = experiment: greenhouse test, post-emergence treatment, POLCO; details: 500 g/ha
Method in brief: as §1

Amaranthus retroflexus = experiment: greenhouse test, post-emergence treatment, AMARE
Method in brief: as §1

Chenopodium album = experiment: greenhouse test, post-emergence treatment, CHEAL; details: 250 g/ha
Source text: as §2, §3, §4, §5, §6, §7

Abutilon theophrasti [3] = experiment: greenhouse test, post-emergence treatment, ABUTH; details: 2000 g/ha
Method in brief: as §1

Setaria viridis = experiment: greenhouse test, pre-emergence treatment, SETVI; details: 2000 g/ha
Source text: as §2
(§8) For the pre-emergence treatment, the active ingredients, which had been suspended or emulsified in water, were applied directly after sowing by means of finely distributing nozzles. The containers were irrigated gently to promote germination and growth and subsequently covered with transparent plastic hoods until the plants had rooted. This cover caused uniform germination of the test plants, unless this had been impaired by the active ingredients.
as §4, §5, §6, §7

Agrostis stolonifera = experiment: greenhouse test, post-emergence treatment, AGSST
Source text: as §2, §3, §4, §5, §6, §7

Apera spica-venti [4] = experiment: greenhouse test, pre-emergence treatment, APESV
Method in brief: (§9)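 Scores run from 0, normal growth, to 100, no emergence or aerial parts destroyed, assessed after 2 to 4 weeks at 10-25 °C or 20-35 °C depending on species. Actives in water were spray-applied immediately post-sowing onto loamy sand with approximately 3.0% humus; hoods kept on until rooting.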

Echinocloa crus-galli [5] = experiment: greenhouse test, pre-emergence treatment, ECHCG
Method in brief: as §9

Poa annua = experiment: greenhouse test, pre-emergence treatment, POAAN
Method in brief: as §9

Avena fatua = experiment: greenhouse test, post-emergence treatment, AVEFA; details: 2000 g/ha
Method in brief: as §1

Matricaria inodora = experiment: greenhouse test, pre-emergence treatment, MATIN; details: 2000 g/ha
Source text: as §2, §8, §4, §5, §6, §7

Abutilon theophrasti [6] = experiment: greenhouse test, pre-emergence treatment, ABUTH; details: 2000 g/ha
Source text: as §2, §8, §4, §5, §6, §7

Apera spica-venti [7] = experiment: greenhouse test, post-emergence treatment, APESV; details: post-emergence, 2000 g/ha
Source text: as §2, §3, §4, §5, §6, §7

Alopecurus myosuroides [8] = experiment: greenhouse test, pre-emergence treatment, ALOMY; details: 2000 g/ha
Source text: as §2, §8, §4, §5, §6, §7

Cc1ccc(-c2nc(C3CC3)ncc2-c2ccccc2Br)o1 [Ex. 121]
herbicidal activity (Alopecurus myosuroides [1]; 500 g/ha): very good (a very good herbicidal activity is given at values of at least 85) | herbicidal activity (Echinocloa crus-galli [2]; 500 g/ha): very good (a very good herbicidal activity is given at values of at least 85) | herbicidal activity (Lolium multiflorum): very good (a very good herbicidal activity is given at values of at least 85) | herbicidal activity (Polygonum convolvulus): very good (a very good herbicidal activity is given at values of at least 85)

Cc1nc(C)c(-c2nc(C3CC3)ncc2-c2ccccc2Br)o1 [Ex. 265]
herbicidal activity (Alopecurus myosuroides [1]; 250 g/ha): good (A good herbicidal activity is given at values of at least 70) | herbicidal activity (Amaranthus retroflexus; 250 g/ha): very good (a very good herbicidal activity is given at values of at least 85) | herbicidal activity (Chenopodium album): good (A good herbicidal activity is given at values of at least 70)

Brc1ccccc1-c1cnc(C2CC2)nc1C1CC1 [Ex. 39]
herbicidal activity (Abutilon theophrasti [3]): very good (a very good herbicidal activity is given at values of at least 85) | herbicidal activity (Amaranthus retroflexus; 2000 g/ha): very good (a very good herbicidal activity is given at values of at least 85) | herbicidal activity (Setaria viridis): very good (a very good herbicidal activity is given at values of at least 85)

OC(c1cccs1)C(O)c1nc(C2CC2)ncc1-c1ccccc1Cl (centres unmarked) [Ex. 247]
herbicidal activity (Alopecurus myosuroides [1]; 500 g/ha): very good (a very good herbicidal activity is given at values of at least 85) | herbicidal activity (Amaranthus retroflexus; 500 g/ha): very good (a very good herbicidal activity is given at values of at least 85) | herbicidal activity (Agrostis stolonifera; 500 g/ha): very good (a very good herbicidal activity is given at values of at least 85) | herbicidal activity (Apera spica-venti [4]; 500 g/ha): very good (a very good herbicidal activity is given at values of at least 85) | herbicidal activity (Echinocloa crus-galli [5]; 500 g/ha): very good (a very good herbicidal activity is given at values of at least 85) | herbicidal activity (Poa annua; 500 g/ha): very good (a very good herbicidal activity is given at values of at least 85)

C=C(C(=O)OC)c1nc(C2CC2)ncc1-c1ccccc1Cl [Ex. 221]
herbicidal activity (Abutilon theophrasti [3]): very good (a very good herbicidal activity is given at values of at least 85) | herbicidal activity (Echinocloa crus-galli [2]; 2000 g/ha): very good (a very good herbicidal activity is given at values of at least 85) | herbicidal activity (Agrostis stolonifera; 2000 g/ha): very good (a very good herbicidal activity is given at values of at least 85) | herbicidal activity (Apera spica-venti [4]; 2000 g/ha): very good (a very good herbicidal activity is given at values of at least 85) | herbicidal activity (Echinocloa crus-galli [5]; 2000 g/ha): very good (a very good herbicidal activity is given at values of at least 85) | herbicidal activity (Poa annua; 2000 g/ha): very good (a very good herbicidal activity is given at values of at least 85)

Clc1ccccc1-c1cnc(C2CC2)nc1-c1cnco1 [Ex. 260]
herbicidal activity (Alopecurus myosuroides [1]; 2000 g/ha): very good (a very good herbicidal activity is given at values of at least 85) | herbicidal activity (Avena fatua): good (A good herbicidal activity is given at values of at least 70) | herbicidal activity (Echinocloa crus-galli [2]; 2000 g/ha): good (A good herbicidal activity is given at values of at least 70) | herbicidal activity (Apera spica-venti [4]; 2000 g/ha): good (A good herbicidal activity is given at values of at least 70) | herbicidal activity (Echinocloa crus-galli [5]; 2000 g/ha): very good (a very good herbicidal activity is given at values of at least 85) | herbicidal activity (Matricaria inodora): very good (a very good herbicidal activity is given at values of at least 85)

Clc1ccccc1-c1cnc(C2CC2)nc1-c1nc2ccccc2[nH]1 [Ex. 297]
herbicidal activity (Alopecurus myosuroides [1]; 2000 g/ha): very good (a very good herbicidal activity is given at values of at least 85) | herbicidal activity (Avena fatua): very good (a very good herbicidal activity is given at values of at least 85) | herbicidal activity (Echinocloa crus-galli [2]; 2000 g/ha): very good (a very good herbicidal activity is given at values of at least 85) | herbicidal activity (Abutilon theophrasti [6]): good (A good herbicidal activity is given at values of at least 70) | herbicidal activity (Apera spica-venti [4]; 2000 g/ha): very good (a very good herbicidal activity is given at values of at least 85) | herbicidal activity (Echinocloa crus-galli [5]; 2000 g/ha): good (A good herbicidal activity is given at values of at least 70)

CC(O)Cc1nc(C2CC2)ncc1-c1ccccc1Cl (centres unmarked) [Ex. 105]
herbicidal activity (Apera spica-venti [7]): very good (a very good herbicidal activity is given at values of at least 85) | herbicidal activity (Echinocloa crus-galli [2]; 2000 g/ha): very good (a very good herbicidal activity is given at values of at least 85) | herbicidal activity (Alopecurus myosuroides [8]): very good (a very good herbicidal activity is given at values of at least 85) | herbicidal activity (Echinocloa crus-galli [5]; 2000 g/ha): very good (a very good herbicidal activity is given at values of at least 85)
